How the values were obtained:
ECHCG [1] = assay: greenhouse experiment, pre-emergence treatment; type: in vivo, Echinocloa crus-galli; settings: pre-emergence method, application rate 2000 g/ha, scale from 0 to 100
Text: (§1) The seeds of the test plants were sown separately for each species. For the pre-emergence treatment, the active ingredients, which had been suspended or emulsified in water, were applied directly after sowing by means of finely distributing nozzles. The containers were irrigated gently to promote germination and growth and subsequently covered with transparent plastic hoods until the plants had rooted. This cover caused uniform germination of the test plants, unless this had been impaired by the active ingredients. Depending on the species, the plants were kept at 10-25° C. or 20-35° C., respectively. The test period extended over 2 to 4 weeks. During this time, the plants were tended, and their response to the individual treatments was evaluated. Evaluation was carried out using a scale from 0 to 100. 100 means no emergence of the plants, or complete destruction of at least the aerial moieties, and 0 means no damage, or normal course of growth. A good herbicidal activity is given at values of at least 70 and a very good herbicidal activity is given at values of at least 85. The plants used in the greenhouse experiments were of the following species: [table]

ALOMY = assay: greenhouse experiment, post-emergence treatment; type: in vivo, Alopecurus myosuroides; settings: post-emergence method, application rate 2000 g/ha, scale from 0 to 100
Text: (§2) The culture containers used were plastic flowerpots containing loamy sand with approximately 3.0% of humus as the substrate. The seeds of the test plants were sown separately for each species.
(§3) For the post-emergence treatment, the test plants were first grown to a height of 3 to 15 cm, depending on the plant habit, and only then treated with the active ingredients which had been suspended or emulsified in water. For this purpose, the test plants were either sown directly and grown in the same containers, or they were first grown separately as seedlings and transplanted into the test containers a few days prior to treatment.
(§4) Depending on the species, the plants were kept at 10-25° C. or 20-35° C., respectively.
(§5) The test period extended over 2 to 4 weeks. During this time, the plants were tended, and their response to the individual treatments was evaluated.
(§6) Evaluation was carried out using a scale from 0 to 100. 100 means no emergence of the plants, or complete destruction of at least the aerial moieties, and 0 means no damage, or normal course of growth. A good herbicidal activity is given at values of at least 70 and a very good herbicidal activity is given at values of at least 85.
(§7) The plants used in the greenhouse experiments were of the following species: […]

APESV = assay: greenhouse experiment, pre-emergence treatment; type: in vivo, Apera spica-venti; settings: pre-emergence method, application rate 2000 g/ha, scale from 0 to 100
Text: as §1

SETVI = assay: greenhouse experiment, post-emergence treatment; type: in vivo, Setaria viridis; settings: post-emergence method, application rate 2000 g/ha, scale from 0 to 100
Text: as §2, §3, §4, §5, §6, §7

ABUTH = assay: greenhouse experiment, post-emergence treatment; type: in vivo, Abutilon theophrasti; settings: post-emergence method, application rate 2000 g/ha, scale from 0 to 100
Text: as §2, §3, §4, §5, §6, §7

AVEFA = assay: greenhouse experiment, post-emergence treatment; type: in vivo, Avena fatua; settings: post-emergence method, application rate 2000 g/ha, scale from 0 to 100
Text: as §2, §3, §4, §5, §6, §7

AMARE = assay: greenhouse experiment, post-emergence treatment; type: in vivo, Amaranthus retroflexus; settings: post-emergence method, application rate 2000 g/ha, scale from 0 to 100
Text: as §2, §3, §4, §5, §6, §7

ECHCG [2] = assay: greenhouse experiment, post-emergence treatment; type: in vivo, Echinocloa crus-galli; settings: post-emergence method, application rate 2000 g/ha, scale from 0 to 100
Description: The seeds of the test plants were sown separately for each species. […] For this purpose, the test plants were either sown directly and grown in the same containers, or they were first grown separately as seedlings and transplanted into the test containers a few days prior to treatment. Depending on the species, the plants were kept at 10-25° C. or 20-35° C., respectively. The test period extended over 2 to 4 weeks. During this time, the plants were tended, and their response to the individual treatments was evaluated. Evaluation was carried out using a scale from 0 to 100. 100 means no emergence of the plants, or complete destruction of at least the aerial moieties, and 0 means no damage, or normal course of growth. A good herbicidal activity is given at values of at least 70 and a very good herbicidal activity is given at values of at least 85. The plants used in the greenhouse experiments were of the following species: [table]

| SMILES | herbicidal activity against ECHCG (ECHCG [1]) | herbicidal activity against ALOMY (ALOMY) | herbicidal activity against APESV (APESV) | herbicidal activity against SETVI (SETVI) | herbicidal activity against ABUTH (ABUTH) | herbicidal activity against AVEFA (AVEFA) | herbicidal activity against AMARE (AMARE) | herbicidal activity against ECHCG (ECHCG [2]) |
| --- | --- | --- | --- | --- | --- | --- | --- | --- |
| COC(=O)c1nc(C2CC2)ncc1-c1cc(C(F)(F)F)ncc1Cl [Example 63] | very good (a very good herbicidal activity is given at values of at least 85) | very good (a very good herbicidal activity is given at values of at least 85) | very good (a very good herbicidal activity is given at values of at least 85) | very good (a very good herbicidal activity is given at values of at least 85) | very good (a very good herbicidal activity is given at values of at least 85) | – | – | – |
| COC(=O)c1nc(C2CC2)ncc1-c1ncccc1Br [Example 28] | very good (a very good herbicidal activity is given at values of at least 85) | very good (a very good herbicidal activity is given at values of at least 85) | very good (a very good herbicidal activity is given at values of at least 85) | good (A good herbicidal activity is given at values of at least 70) | – | – | – | – |
| CCc1ncc(-c2ncccc2Br)c(C(=O)O)n1 [Example 49] | very good (a very good herbicidal activity is given at values of at least 85) | – | – | very good (a very good herbicidal activity is given at values of at least 85) | – | – | – | – |
| COC(=O)c1nc(C2CC2)ncc1-c1nc(C(F)(F)F)ccc1F [Example 61] | very good (a very good herbicidal activity is given at values of at least 85) | very good (a very good herbicidal activity is given at values of at least 85) | good (A good herbicidal activity is given at values of at least 70) | very good (a very good herbicidal activity is given at values of at least 85) | – | very good (a very good herbicidal activity is given at values of at least 85) | – | – |
| CCc1ncc(-c2cccnc2Br)c(C(=O)O)n1 [Example 48] | – | – | – | very good (a very good herbicidal activity is given at values of at least 85) | – | – | – | – |
| O=C(O)c1nc(C2CC2)ncc1-c1ccncc1Br [Example 38] | very good (a very good herbicidal activity is given at values of at least 85) | very good (a very good herbicidal activity is given at values of at least 85) | very good (a very good herbicidal activity is given at values of at least 85) | – | – | very good (a very good herbicidal activity is given at values of at least 85) | very good (a very good herbicidal activity is given at values of at least 85) | – |
| Cc1ccsc1-c1cnc(C2CC2)nc1C(=O)O [Example 3] | very good (a very good herbicidal activity is given at values of at least 85) | – | very good (a very good herbicidal activity is given at values of at least 85) | – | – | – | very good (a very good herbicidal activity is given at values of at least 85) | very good (a very good herbicidal activity is given at values of at least 85) |
| COC(=O)c1nc(C2CC2)ncc1-c1ncc(F)cc1F [Example 31] | – | – | very good (a very good herbicidal activity is given at values of at least 85) | very good (a very good herbicidal activity is given at values of at least 85) | good (A good herbicidal activity is given at values of at least 70) | – | – | – |
| COC(=O)c1nc(C2CC2)ncc1-c1cccnc1Br [Example 18] | very good (a very good herbicidal activity is given at values of at least 85) | – | very good (a very good herbicidal activity is given at values of at least 85) | – | – | very good (a very good herbicidal activity is given at values of at least 85) | very good (a very good herbicidal activity is given at values of at least 85) | very good (a very good herbicidal activity is given at values of at least 85) |
| COC(=O)c1nc(C2CC2)ncc1-c1cnccc1Br [Example 34] | – | very good (a very good herbicidal activity is given at values of at least 85) | – | very good (a very good herbicidal activity is given at values of at least 85) | – | – | – | very good (a very good herbicidal activity is given at values of at least 85) |
| COC(=O)c1nc(OC)ncc1-c1ncc(F)cc1F [Example 53] | – | – | – | good (A good herbicidal activity is given at values of at least 70) | – | – | – | – |
| COC(=O)c1nc(C2CC2)ncc1-c1ncc(F)cc1Cl [Example 41] | very good (a very good herbicidal activity is given at values of at least 85) | very good (a very good herbicidal activity is given at values of at least 85) | very good (a very good herbicidal activity is given at values of at least 85) | very good (a very good herbicidal activity is given at values of at least 85) | – | very good (a very good herbicidal activity is given at values of at least 85) | – | – |
| O=C(O)c1nc(C2CC2)ncc1-c1ncc(F)cc1Br [Example 24] | very good (a very good herbicidal activity is given at values of at least 85) | – | very good (a very good herbicidal activity is given at values of at least 85) | – | – | very good (a very good herbicidal activity is given at values of at least 85) | very good (a very good herbicidal activity is given at values of at least 85) | very good (a very good herbicidal activity is given at values of at least 85) |
| COC(=O)c1nc(C2CC2)ncc1-c1ccncc1F [Example 33] | – | – | good (A good herbicidal activity is given at values of at least 70) | very good (a very good herbicidal activity is given at values of at least 85) | – | very good (a very good herbicidal activity is given at values of at least 85) | very good (a very good herbicidal activity is given at values of at least 85) | – |
| COC(=O)c1nc(C2CC2)ncc1-c1ncccc1F [Example 19] | – | – | – | very good (a very good herbicidal activity is given at values of at least 85) | – | – | very good (a very good herbicidal activity is given at values of at least 85) | very good (a very good herbicidal activity is given at values of at least 85) |
